Measurements: paper PMC11855827, “High-Throughput Screening of Five Compound Libraries for Anthelmintic Activity and Toxicity Leads to the Discovery of Two Flavonoid Compounds” (International Journal of Molecular Sciences, 2025)
*1 amine or outer side, *2 acyl side, *3 side chain or, on linkers, in order; H or OH if unused. Where a SMILES comes first, the peptide text is derived from it. Bridges are numbered along the chain shown (N, C = ends). [ ]: non-standard residue; d: D form. The star is where a group is joined. hTyr(3S-OH,4S-OH,3'-OSO3H) = N[C@H](C(=O)O)[C@H](O)[C@@H](O)c1ccc(O)c(OS(=O)(=O)O)c1; Orn(4R-OH,5R-OH) = O=C([C@H](C[C@@H](O)[C@@H](O)N[*:3])N[*:1])[*:2]; Pro(3S-OH,4S-Me) = C[C@H]1CN[C@H](C(=O)O)[C@H]1O; X1 = CCCCCOc1ccc(-c2cc(-c3ccc(C(=O)*)cc3)no2)cc1; Gln(3R-OH) = NC(=O)C[C@@H](O)[C@H](N)C(=O)O; Hyp = O=C(O)[C@@H]1C[C@@H](O)CN1

Test system: C. elegans
Conditions: Table S2, C. elegans SS assay, 110 μM, averages of 4 data points

Row | Compound | Percentage of motility inhibition 0 h | Percentage of motility inhibition 24 h
1 | COC(=O)C1=CO[C@@H](O[C@@H]2O[C@H](CO)[C@@H](O)[C@H](O)[C@H]2O)[C@@H]2[C@@]3(C)O[C@H]3[C@@H](O)[C@]12O [Sesamoside] | 4% | 25%
2 | CC(=O)OC/C1=C\[C@H]2[C@@H](OC(=O)/C=C/c3ccccc3)[C@@H](C)C[C@]2(OC(C)=O)C(=O)/C(C)=C/[C@@H]2[C@H](CC1)C2(C)C [Euphorbia factor L7a] | 21% | 23%
3 | CO/N=C(\C(=O)N[C@@H]1C(=O)N2C(C(=O)[O-])=C(COC(C)=O)CS[C@H]12)c1csc(N)n1.[Na+] [Cefotaxime (sodium salt)] | 30% | 34%
4 | COc1c(O[C@@H]2O[C@H](CO[C@@H]3OC[C@@H](O)[C@H](O)[C@H]3O)[C@@H](O)[C@H](O)[C@H]2O)cc2occ(-c3ccc(O)cc3)c(=O)c2c1O [Tectorigenin 7‐O‐Xylosyl Glucoside] | 0% | 1%
5 | COc1cc(O)cc(O)c1C(=O)/C=C/c1ccccc1 [Cardamonin] | 0% | 13%
6 | O=c1c(O[C@@H]2OC[C@H](O)[C@H](O)[C@H]2O)c(-c2ccc(O)c(O)c2)oc2cc(O)cc(O)c12 [Guaijaverin] | 0% | 25%
7 | CC(C)C[C@H]1C(=O)O[C@H](Cc2ccc(N3CCOCC3)cc2)C(=O)N(C)[C@@H](CC(C)C)C(=O)O[C@H](C)C(=O)N(C)[C@@H](CC(C)C)C(=O)O[C@H](Cc2ccc(N3CCOCC3)cc2)C(=O)N(C)[C@@H](CC(C)C)C(=O)O[C@H](C)C(=O)N1C [Emodepside] | 69% | 47%
8 | CC(=O)Oc1ccc([C@@H]2CC(=O)c3c(OC(C)=O)cc(OC(C)=O)cc3O2)cc1 [Naringenin triacetate] | 0% | 14%
9 | CC(C)=CCC[C@](C)(O)[C@H]1CC[C@]2(C)[C@@H]1[C@H](O)C[C@@H]1[C@@]3(C)C[C@@H](O)[C@H](O[C@@H]4O[C@H](CO)[C@@H](O)[C@H](O)[C@H]4O[C@@H]4O[C@H](CO)[C@@H](O)[C@H](O)[C@H]4O)C(C)(C)[C@@H]3CC[C@]12C [Gypenoside L] | 22% | 15%
10 | Cl.Cl.Cn1cncc1CCN [3‐Methylhistamine (dihydrochloride)] | 4% | 0%
11 | COC(=O)N[C@H](C(=O)N1CC2(CC2)C[C@H]1c1ncc(-c2ccc3c(c2)C(F)(F)c2cc(-c4ccc5nc([C@@H]6[C@H]7CC[C@H](C7)N6C(=O)[C@@H](NC(=O)OC)C(C)C)[nH]c5c4)ccc2-3)[nH]1)C(C)C.O=C(O)C(O)C(O)C(=O)O [Ledipasvir (D‐tartrate)] | 34% | 13%
12 | CC(CC(=O)CC(C)[C@H]1CC(=O)C2(C)C3=C(C(=O)C(=O)C12C)C1(C)CCC(=O)C(C)(C)[C@@H]1CC3=O)C(=O)O (stereo partly shown) [Ganosporeric acid A] | 36% | 9%
13 | CCN(CC)C(=O)N1CCN(C)CC1.O=C(O)CC(O)(CC(=O)O)C(=O)O [Diethylcarbamazine (citrate)] | 13% | 17%
14 | Evocarpine | 8% | 20%
15 | CCCNC[C@]1(O)[C@H](C)O[C@@H](O[C@H]2[C@H](C)[C@@H](O[C@@H]3O[C@H](C)C[C@H](N(C)C)[C@H]3O)[C@](C)(O)C[C@@H](C)CN[C@H](C)[C@@H](O)[C@](C)(O)[C@@H](CC)OC(=O)[C@@H]2C)C[C@@]1(C)OC [Tulathromycin A] | 20% | 9%
16 | C=C1C[C@@]23CC[C@H]4[C@@](C)(CCC[C@@]4(C)C(=O)O[C@@H]4O[C@H](CO)[C@@H](O)[C@H](O)[C@H]4O[C@@H]4O[C@H](CO)[C@@H](O)[C@H](O)[C@H]4O)[C@@H]2CC[C@]1(O[C@@H]1O[C@H](CO)[C@@H](O)[C@H](O[C@@H]2O[C@H](CO)[C@@H](O)[C@H](O)[C@H]2O)[C@H]1O[C@@H]1O[C@H](CO)[C@@H](O)[C@H](O)[C@H]1O)C3 [Rebaudioside D] | 11% | 3%
17 | C[C@H](CC[C@@H](O[C@@H]1O[C@H](CO[C@@H]2O[C@H](CO)[C@@H](O)[C@H](O)[C@H]2O)[C@@H](O)[C@H](O)[C@H]1O[C@@H]1O[C@H](CO)[C@@H](O)[C@H](O)[C@H]1O)C(C)(C)O)[C@H]1CC[C@@]2(C)[C@@H]3CC=C4[C@@H](CC[C@H](O[C@@H]5O[C@H](CO)[C@@H](O[C@@H]6O[C@H](CO)[C@@H](O)[C@H](O)[C@H]6O)[C@H](O)[C@H]5O)C4(C)C)[C@]3(C)[C@H](O)C[C@]12C [Isomogroside V] | 28% | 21%
18 | CC1OC2OC3C(OCC(O)C3O)OC(=O)C34CCC(C)(C)CC3C3=CCC5C6(C)CC(O)C(OC7OC(CO)C(O)C(O)C7OC7OCC(OC(=O)CC(C)(O)CC(=O)OC1C(OC1OCC(O)C(O)C1O)C2O)C(O)C7O)C(C)(CO)C6CCC5(C)C3(C)CC4O (stereo not shown) [Tubeimoside II] | 0% | 2%

Row | Compound | Percentage of motility inhibition 0 h | Percentage of motility inhibition 24 h
19 | CCCCCOc1ccc(-c2cc(-c3ccc(C(=O)N[C@H]4C[C@@H](O)[C@@H](O)NC(=O)[C@@H]5[C@@H](O)[C@@H](C)CN5C(=O)[C@H]([C@H](O)CC(N)=O)NC(=O)[C@H]([C@H](O)[C@@H](O)c5ccc(O)c(OS(=O)(=O)[O-])c5)NC(=O)[C@@H]5C[C@@H](O)CN5C(=O)[C@H]([C@@H](C)O)NC4=O)cc3)no2)cc1.[Na+] [Micafungin (sodium)] (X1-[Orn(4R-OH,5R-OH)]T[Hyp][hTyr(3S-OH,4S-OH,3'-OSO3H)][Gln(3R-OH)][Pro(3S-OH,4S-Me)]; lactam 1-C) | 3% | 0%
20 | C/C=C1/CN2CCc3c([nH]c4ccccc34)[C@@H]2C[C@@H]1/C(=C/OC)C(=O)OC [Geissoschizine methyl ether] | 0% | 19%
21 | C[C@@]12C=Cc3occc3[C@H]1CC[C@@]13C[C@@H](CC[C@H]12)[C@@](O)(CO)C3 [Kahweol] | 11% | 19%
22 | CC(=O)O[C@@H]1CC[C@@]2(C)[C@@H](CC[C@]3(C)[C@@H]2CC=C2[C@@H]4[C@@H](C)[C@H](C)CC[C@]4(C)CC[C@]23C)[C@@]1(C)C(=O)O [3-Acetyl-beta-boswellic acid] | 15% | 21%
23 | O=c1ccoc2cc(O)cc(O)c12 [5,7‐Dihydroxychromone] | 0% | 0%
24 | Brusatol | 48% | 37%
25 | C[C@H]1[C@H]2[C@H](O[C@@H]3O[C@H](CO)[C@@H](O)[C@H](O)[C@H]3O)OC=C(C(=O)O)[C@H]2C[C@@H]1O [8-Epiloganic acid] | 4% | 15%
26 | Cl.O[C@H]1CCN2Cc3ccccc3N=C12 [Vasicine (hydrochloride)] | 0% | 2%
27 | CC(C)CN(C[C@@H](O)[C@H](Cc1ccccc1)NC(=O)O[C@H]1CO[C@H]2OCC[C@H]21)S(=O)(=O)c1ccc(N)cc1.CCO [Darunavir (Ethanolate)] | 14% | 10%
28 | NC(N)=O [Urea] | 10% | 13%
29 | C/C(=C\C=C\[C@@]1(C)OC(=O)[C@]23CC=C(C(=O)O)CC[C@]2(O)[C@H]1CC3)C(=O)O [Demethoxydeacetoxypseudolaric acid B] | 0% | 0%
30 | CC(C)=CCC[C@@](C)(O)[C@H]1CC[C@]2(C)[C@@H]1[C@H](O)C[C@@H]1[C@@]3(C)CC[C@H](O)C(C)(C)[C@@H]3[C@@H](O)C[C@]12C [20(R)-Protopanaxatriol] | 0% | 21%
31 | COc1ccc(/C=C/C(=O)c2ccc(OC)cc2)cc1 [4,4'‐Dimetho xychalcone] | 24% | 3%
32 | C=C(CCC=C(C)C)[C@H]1CC[C@]2(C)[C@@H]1[C@H](O)C[C@@H]1[C@@]3(C)CC[C@H](O)C(C)(C)[C@@H]3[C@@H](O[C@@H]3O[C@H](CO)[C@@H](O)[C@H](O)[C@H]3O)C[C@]12C [Ginsenoside Rk3] | 0% | 19%
33 | Echinocystic acid | 45% | 35%
34 | CCC[C@@H]1C[C@@H](C(=O)N[C@@H]([C@H]2O[C@H](SC)[C@H](O)[C@@H](O)[C@H]2O)[C@H](C)Cl)N(C)C1.Cl [Clindamycin (hydrochloride)] | 28% | 3%
35 | C/C=C1/CN2[C@H]3Cc4c([nH]c5ccccc45)[C@]2(O)C[C@@H]1[C@@]3(CO)C(=O)OC [16‐Epivoacarpine] | 7% | 2%
